# Data from PMC11167047 (Cell Death Discovery, 2024).
# How the values were obtained:
# Test in all cases: kinome screen (33PanQinase)
# Type in all cases: biochemical
# [1] = target: T1, ARK5 (Homo sapiens, UniProt O60285)
# T1 construct: purchased Reaction Biology Europe GmbH (formerly ProQinase)
# T1 sequence (O60285 1-661): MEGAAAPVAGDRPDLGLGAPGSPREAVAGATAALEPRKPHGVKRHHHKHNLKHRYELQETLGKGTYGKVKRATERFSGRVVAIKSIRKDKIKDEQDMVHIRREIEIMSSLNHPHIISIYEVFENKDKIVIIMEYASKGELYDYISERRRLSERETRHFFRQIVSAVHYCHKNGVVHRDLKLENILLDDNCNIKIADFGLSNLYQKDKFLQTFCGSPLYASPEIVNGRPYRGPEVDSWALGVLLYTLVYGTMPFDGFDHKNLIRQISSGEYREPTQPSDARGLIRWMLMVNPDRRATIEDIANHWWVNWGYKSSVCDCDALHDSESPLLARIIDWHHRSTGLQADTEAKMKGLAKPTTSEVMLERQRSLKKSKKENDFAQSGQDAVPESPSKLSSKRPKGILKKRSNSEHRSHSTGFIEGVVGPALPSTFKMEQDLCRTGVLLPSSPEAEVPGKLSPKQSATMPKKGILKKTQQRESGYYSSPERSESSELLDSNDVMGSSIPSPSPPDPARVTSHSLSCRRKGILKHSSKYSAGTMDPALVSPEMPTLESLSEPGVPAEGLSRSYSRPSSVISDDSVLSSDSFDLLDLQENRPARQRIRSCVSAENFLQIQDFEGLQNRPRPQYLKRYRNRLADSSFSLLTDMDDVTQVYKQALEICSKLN
# Procedure: (§1) The Kinome Screening was performed by Reaction Biology Europe GmbH (http://reactionbiology.com; Freiburg i. Br., Germany).
# [2] = target: T2, CDK20/CycH (Homo sapiens, UniProt Q8IZL9)
# T2 construct: purchased Reaction Biology Europe GmbH (formerly ProQinase)
# T2 sequence (Q8IZL9 whole entry): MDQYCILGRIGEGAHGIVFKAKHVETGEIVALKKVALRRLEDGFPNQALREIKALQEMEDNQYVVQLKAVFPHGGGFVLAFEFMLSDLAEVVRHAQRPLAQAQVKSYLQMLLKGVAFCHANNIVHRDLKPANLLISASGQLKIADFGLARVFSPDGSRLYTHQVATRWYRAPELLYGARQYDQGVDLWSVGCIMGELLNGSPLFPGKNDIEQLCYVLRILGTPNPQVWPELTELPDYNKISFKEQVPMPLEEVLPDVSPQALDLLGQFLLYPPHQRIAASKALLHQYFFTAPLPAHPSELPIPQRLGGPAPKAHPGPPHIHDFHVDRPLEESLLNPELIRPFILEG
# T2 sequence (P51946 whole entry partner): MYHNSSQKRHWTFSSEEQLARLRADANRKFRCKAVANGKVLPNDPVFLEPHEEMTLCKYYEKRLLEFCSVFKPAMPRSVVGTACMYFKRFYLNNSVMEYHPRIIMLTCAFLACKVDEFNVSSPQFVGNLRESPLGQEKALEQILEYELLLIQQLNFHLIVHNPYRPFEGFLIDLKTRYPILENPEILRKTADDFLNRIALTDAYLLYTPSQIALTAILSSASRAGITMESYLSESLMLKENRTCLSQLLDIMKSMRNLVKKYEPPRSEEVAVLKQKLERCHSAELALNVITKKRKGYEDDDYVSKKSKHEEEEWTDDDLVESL
# Procedure: as §1
# [3] = target: T3, CHK1 (Homo sapiens, UniProt O14757)
# T3 construct: purchased Reaction Biology Europe GmbH (formerly ProQinase)
# T3 sequence (O14757 1-476): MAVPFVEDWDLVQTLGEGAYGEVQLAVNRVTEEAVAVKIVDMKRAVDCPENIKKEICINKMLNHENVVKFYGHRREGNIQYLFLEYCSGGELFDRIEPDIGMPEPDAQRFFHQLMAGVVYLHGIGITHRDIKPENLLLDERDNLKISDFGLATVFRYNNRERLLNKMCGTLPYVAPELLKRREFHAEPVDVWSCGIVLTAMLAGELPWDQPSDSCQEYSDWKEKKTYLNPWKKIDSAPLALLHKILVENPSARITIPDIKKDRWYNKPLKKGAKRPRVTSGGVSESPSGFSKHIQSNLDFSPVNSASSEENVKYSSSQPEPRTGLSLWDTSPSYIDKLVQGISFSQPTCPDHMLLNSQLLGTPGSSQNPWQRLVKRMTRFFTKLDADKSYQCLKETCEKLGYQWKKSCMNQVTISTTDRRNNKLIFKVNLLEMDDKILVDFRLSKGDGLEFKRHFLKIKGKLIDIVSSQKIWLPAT
# Procedure: as §1
# [4] = target: T4, CLK4 (Homo sapiens, UniProt Q9HAZ1)
# T4 construct: purchased Reaction Biology Europe GmbH (formerly ProQinase)
# T4 sequence (Q9HAZ1 whole entry): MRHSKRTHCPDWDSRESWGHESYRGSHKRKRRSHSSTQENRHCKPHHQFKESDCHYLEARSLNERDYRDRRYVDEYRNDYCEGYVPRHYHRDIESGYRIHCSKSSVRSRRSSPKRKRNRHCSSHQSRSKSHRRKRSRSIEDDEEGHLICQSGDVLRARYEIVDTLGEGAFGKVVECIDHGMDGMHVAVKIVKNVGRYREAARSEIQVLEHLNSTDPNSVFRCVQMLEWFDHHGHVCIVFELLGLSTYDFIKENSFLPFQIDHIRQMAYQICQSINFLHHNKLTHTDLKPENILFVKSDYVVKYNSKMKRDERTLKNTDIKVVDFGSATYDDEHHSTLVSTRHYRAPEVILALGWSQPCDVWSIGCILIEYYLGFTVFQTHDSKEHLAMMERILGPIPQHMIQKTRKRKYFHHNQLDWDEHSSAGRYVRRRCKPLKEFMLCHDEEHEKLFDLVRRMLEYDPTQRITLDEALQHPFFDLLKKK
# Procedure: as §1
# [5] = target: T5, DYRK1A (Homo sapiens, UniProt Q13627)
# T5 construct: purchased Reaction Biology Europe GmbH (formerly ProQinase)
# Procedure: as §1
# [6] = target: T6, EPHA3 (Homo sapiens, UniProt P29320)
# T6 construct: purchased Reaction Biology Europe GmbH (formerly ProQinase)
# T6 sequence (P29320 21-983): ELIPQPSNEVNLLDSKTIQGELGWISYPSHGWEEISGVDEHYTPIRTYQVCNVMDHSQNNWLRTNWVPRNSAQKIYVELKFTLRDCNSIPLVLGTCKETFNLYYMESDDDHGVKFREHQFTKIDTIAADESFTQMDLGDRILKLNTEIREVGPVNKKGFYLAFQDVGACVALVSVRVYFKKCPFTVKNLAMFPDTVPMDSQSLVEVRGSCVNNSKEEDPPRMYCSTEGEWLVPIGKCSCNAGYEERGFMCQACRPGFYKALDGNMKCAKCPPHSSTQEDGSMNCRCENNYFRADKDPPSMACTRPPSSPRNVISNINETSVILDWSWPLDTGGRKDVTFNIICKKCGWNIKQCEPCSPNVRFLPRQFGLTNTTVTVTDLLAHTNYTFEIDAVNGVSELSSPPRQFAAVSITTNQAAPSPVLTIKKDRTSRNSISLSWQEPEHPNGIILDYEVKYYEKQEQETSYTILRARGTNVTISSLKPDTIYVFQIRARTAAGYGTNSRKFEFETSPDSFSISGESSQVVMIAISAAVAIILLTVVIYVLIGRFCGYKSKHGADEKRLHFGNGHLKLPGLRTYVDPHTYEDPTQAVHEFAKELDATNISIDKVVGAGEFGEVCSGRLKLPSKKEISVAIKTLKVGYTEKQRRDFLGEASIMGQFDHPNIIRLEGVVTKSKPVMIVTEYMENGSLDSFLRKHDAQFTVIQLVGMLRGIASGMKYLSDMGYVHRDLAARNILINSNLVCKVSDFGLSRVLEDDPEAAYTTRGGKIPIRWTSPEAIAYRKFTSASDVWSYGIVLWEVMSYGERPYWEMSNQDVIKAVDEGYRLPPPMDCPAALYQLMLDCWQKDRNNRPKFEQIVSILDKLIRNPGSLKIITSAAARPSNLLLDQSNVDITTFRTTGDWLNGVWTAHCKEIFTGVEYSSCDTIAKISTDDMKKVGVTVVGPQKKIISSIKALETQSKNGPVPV
# Procedure: as §1
# [7] = target: T7, KIT (Homo sapiens, UniProt P10721)
# T7 construct: purchased Reaction Biology Europe GmbH (formerly ProQinase)
# T7 sequence (P10721 26-976): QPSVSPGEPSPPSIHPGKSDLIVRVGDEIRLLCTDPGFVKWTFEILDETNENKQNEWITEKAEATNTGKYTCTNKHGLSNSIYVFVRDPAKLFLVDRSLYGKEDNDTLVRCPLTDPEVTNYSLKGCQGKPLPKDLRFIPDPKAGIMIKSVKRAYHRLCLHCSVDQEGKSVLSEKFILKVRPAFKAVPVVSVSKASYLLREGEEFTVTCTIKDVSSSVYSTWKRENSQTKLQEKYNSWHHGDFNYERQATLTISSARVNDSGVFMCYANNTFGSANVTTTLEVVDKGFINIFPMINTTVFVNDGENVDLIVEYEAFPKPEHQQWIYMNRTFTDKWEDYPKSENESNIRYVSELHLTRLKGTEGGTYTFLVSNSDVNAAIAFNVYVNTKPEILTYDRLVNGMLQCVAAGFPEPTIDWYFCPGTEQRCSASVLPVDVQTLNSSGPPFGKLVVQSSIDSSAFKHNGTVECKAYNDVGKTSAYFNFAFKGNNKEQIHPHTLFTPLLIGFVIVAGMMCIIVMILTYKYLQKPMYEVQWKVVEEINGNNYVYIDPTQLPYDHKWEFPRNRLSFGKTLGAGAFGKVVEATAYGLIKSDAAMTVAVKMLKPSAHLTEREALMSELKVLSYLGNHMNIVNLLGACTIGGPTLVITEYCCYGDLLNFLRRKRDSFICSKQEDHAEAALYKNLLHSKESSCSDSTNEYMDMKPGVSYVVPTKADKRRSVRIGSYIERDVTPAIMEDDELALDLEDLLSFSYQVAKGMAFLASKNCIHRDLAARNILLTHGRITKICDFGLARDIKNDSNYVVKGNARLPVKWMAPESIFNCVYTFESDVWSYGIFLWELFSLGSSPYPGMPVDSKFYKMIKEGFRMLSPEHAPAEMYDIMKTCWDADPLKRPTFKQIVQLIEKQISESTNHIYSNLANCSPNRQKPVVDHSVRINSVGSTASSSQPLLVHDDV
# Procedure: as §1
# [8] = target: T8, MAPKAPK2 (Homo sapiens, UniProt P49137)
# T8 construct: purchased Reaction Biology Europe GmbH (formerly ProQinase)
# T8 sequence (P49137 whole entry): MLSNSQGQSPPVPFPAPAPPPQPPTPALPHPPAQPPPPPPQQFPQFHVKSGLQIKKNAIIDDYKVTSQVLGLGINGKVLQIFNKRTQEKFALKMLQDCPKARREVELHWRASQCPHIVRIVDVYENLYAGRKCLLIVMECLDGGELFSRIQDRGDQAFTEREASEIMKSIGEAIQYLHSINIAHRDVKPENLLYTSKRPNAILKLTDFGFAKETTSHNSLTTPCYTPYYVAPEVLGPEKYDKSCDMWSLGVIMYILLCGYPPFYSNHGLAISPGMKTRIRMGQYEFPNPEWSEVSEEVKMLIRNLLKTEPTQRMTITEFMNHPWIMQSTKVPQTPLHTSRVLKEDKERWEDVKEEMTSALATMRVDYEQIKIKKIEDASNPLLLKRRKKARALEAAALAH
# Procedure: as §1
# [9] = target: T9, MELK (Homo sapiens, UniProt Q14680)
# T9 construct: purchased Reaction Biology Europe GmbH (formerly ProQinase)
# T9 sequence (Q14680 whole entry): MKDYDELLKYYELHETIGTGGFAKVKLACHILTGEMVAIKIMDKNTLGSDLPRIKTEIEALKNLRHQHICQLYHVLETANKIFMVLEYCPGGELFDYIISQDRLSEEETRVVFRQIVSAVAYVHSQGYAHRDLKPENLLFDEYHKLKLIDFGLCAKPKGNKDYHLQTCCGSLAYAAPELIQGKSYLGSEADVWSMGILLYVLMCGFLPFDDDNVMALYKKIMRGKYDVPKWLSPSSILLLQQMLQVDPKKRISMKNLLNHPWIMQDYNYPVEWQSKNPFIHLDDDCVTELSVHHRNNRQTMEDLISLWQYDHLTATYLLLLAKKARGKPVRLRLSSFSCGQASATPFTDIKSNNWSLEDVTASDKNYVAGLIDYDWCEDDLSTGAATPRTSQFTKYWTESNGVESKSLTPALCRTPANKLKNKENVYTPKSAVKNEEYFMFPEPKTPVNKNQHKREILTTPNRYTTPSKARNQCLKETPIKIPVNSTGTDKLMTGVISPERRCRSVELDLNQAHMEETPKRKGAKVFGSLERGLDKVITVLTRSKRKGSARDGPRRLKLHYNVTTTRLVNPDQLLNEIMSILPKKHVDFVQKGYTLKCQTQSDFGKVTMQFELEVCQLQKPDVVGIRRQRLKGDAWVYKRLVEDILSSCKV
# Procedure: as §1
# [10] = target: T10, MLK4 (Homo sapiens, UniProt Q5TCX8)
# T10 construct: purchased Reaction Biology Europe GmbH (formerly ProQinase)
# T10 sequence (Q5TCX8 whole entry): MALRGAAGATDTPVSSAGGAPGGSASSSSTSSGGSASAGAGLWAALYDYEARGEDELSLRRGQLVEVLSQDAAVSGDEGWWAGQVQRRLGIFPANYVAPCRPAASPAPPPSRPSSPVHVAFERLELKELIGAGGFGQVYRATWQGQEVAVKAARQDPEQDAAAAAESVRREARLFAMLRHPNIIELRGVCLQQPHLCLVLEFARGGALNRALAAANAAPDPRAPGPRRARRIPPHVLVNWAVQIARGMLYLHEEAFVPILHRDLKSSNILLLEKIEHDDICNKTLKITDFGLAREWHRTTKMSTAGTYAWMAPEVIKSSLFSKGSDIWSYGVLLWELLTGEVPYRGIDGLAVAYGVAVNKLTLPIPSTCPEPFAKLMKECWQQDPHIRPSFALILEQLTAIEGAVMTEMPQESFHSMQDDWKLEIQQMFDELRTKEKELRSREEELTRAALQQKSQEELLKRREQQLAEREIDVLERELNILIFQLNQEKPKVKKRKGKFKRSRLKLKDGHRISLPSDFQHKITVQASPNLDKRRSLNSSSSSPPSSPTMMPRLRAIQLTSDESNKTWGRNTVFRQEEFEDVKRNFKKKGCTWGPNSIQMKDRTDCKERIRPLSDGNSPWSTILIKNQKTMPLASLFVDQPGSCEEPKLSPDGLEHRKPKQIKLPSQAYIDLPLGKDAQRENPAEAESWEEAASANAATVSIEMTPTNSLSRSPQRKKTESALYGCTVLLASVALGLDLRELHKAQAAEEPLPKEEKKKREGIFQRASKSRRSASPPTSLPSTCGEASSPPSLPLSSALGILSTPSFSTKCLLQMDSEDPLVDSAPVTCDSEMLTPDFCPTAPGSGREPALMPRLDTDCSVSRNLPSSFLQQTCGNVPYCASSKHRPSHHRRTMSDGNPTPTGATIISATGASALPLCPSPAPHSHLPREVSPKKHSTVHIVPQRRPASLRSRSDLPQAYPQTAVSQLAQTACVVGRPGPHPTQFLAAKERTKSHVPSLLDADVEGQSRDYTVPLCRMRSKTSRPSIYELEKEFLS
# Procedure: as §1
# [11] = target: T11, SRC (Homo sapiens, UniProt P12931)
# T11 construct: purchased Reaction Biology Europe GmbH (formerly ProQinase)
# T11 sequence (P12931 whole entry): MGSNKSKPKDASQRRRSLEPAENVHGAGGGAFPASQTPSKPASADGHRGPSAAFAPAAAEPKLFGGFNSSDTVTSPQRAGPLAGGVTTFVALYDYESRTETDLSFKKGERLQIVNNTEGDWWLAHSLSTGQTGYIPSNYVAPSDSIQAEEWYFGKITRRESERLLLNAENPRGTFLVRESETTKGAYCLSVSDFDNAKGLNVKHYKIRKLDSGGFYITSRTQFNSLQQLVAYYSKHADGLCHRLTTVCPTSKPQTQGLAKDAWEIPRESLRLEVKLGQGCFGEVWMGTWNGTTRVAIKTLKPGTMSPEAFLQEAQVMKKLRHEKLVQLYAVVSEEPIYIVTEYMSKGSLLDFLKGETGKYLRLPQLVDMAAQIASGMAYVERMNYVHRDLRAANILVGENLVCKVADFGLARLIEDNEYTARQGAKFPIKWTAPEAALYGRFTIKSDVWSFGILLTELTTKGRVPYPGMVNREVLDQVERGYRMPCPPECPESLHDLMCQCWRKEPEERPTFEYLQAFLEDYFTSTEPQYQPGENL
# Procedure: as §1
Structure (SMILES),residual kinase activity ([1]; 0.3 µM),residual kinase activity ([2]; 0.3 µM),residual kinase activity ([3]; 0.3 µM),residual kinase activity ([4]; 0.3 µM),residual kinase activity ([5]; 0.3 µM),residual kinase activity ([6]; 0.3 µM),residual kinase activity ([7]; 0.3 µM),residual kinase activity ([8]; 0.3 µM),residual kinase activity ([9]; 0.3 µM),residual kinase activity ([10]; 0.3 µM),residual kinase activity ([11]; 0.3 µM),further results
COc1ccnc2[nH]cc(-c3cc(N)nc(N)c3)c12 [meriolin 16],88 % of control,33 % of control,87 % of control,0 % of control,2 % of control,94 % of control,96 % of control,95 % of control,14 % of control,75 % of control,86 % of control,residual kinase activity ([1]; 0.03 µM): 92 % of control; residual kinase activity ([2]; 0.03 µM): 38 % of control; residual kinase activity ([3]; 0.03 µM): 96 % of control; residual kinase activity ([4]; 0.03 µM): 3 % of control; residual kinase activity ([5]; 0.03 µM): 11 % of control; residual kinase activity ([6]; 0.03 µM): 102 % of control; residual kinase activity ([7]; 0.03 µM): 70 % of control; residual kinase activity ([9]; 0.03 µM): 74 % of control; residual kinase activity ([10]; 0.03 µM): 105 % of control; residual kinase activity ([11]; 0.03 µM): 95 % of control
c1ccc(CNc2cc(-c3c[nH]c4ncccc34)ccn2)cc1 [meriolin 36],90 % of control,29 % of control,76 % of control,1 % of control,7 % of control,111 % of control,89 % of control,130 % of control,36 % of control,73 % of control,88 % of control,residual kinase activity ([1]; 3 µM): 40 % of control; residual kinase activity ([2]; 3 µM): 13 % of control; residual kinase activity ([3]; 3 µM): 40 % of control; residual kinase activity ([4]; 3 µM): 1 % of control; residual kinase activity ([5]; 3 µM): 0 % of control; residual kinase activity ([6]; 3 µM): 103 % of control; residual kinase activity ([7]; 3 µM): 46 % of control; residual kinase activity ([8]; 3 µM): 87 % of control; residual kinase activity ([9]; 3 µM): 9 % of control; residual kinase activity ([10]; 3 µM): 40 % of control; residual kinase activity ([11]; 3 µM): 24 % of control
